Results on one compound are retold here after patent US20210228560A1 (Centogene IP GmbH, priority 2011, published 2021).

Positions count from the first letter of the chain named.

Holding throughout (type): cell-based
The test system of assay [1] is α-Gal A protein (GLA mutants). Put plainly: Western blot of GLA protein levels in cells transfected with GLA mutants. Conditions: DGJ and Ambroxol compared to DGJ alone; FIG. 4. Here is the method: Western blot analysis for the detection of α-Gal A protein was performed using a commercially available rabbit anti-α-Gal A polyclonal antibody ([H-104] Santa Cruz) Furthermore, a mouse GAPDH monoclonal antibody ([6C5] abcam) was used as an internal loading control.
The cells were then rinsed off from the wells, transferred to micro centrifuge tubes and spun at 14000×g for 10 minutes at 4° C. to pellet the cell debris. The supernatant was used for the analysis. After the determination of protein concentration, […] protein were mixed with a suitable volume of 5× Laemmli loading buffer, boiled for 5 minutes on a thermo shaker (Eppendorf), centrifuged at 14000×g for 10 minutes at 4° C. and loaded on a Criterion precast 4-15% Tris-HCl gel (Bio-Rad). Proteins were transferred electorophoretically to a Nitrocellulose (Amersham Hybond ECL) membrane (GE Healthcare). The membrane was blocked with 5% (w/v) non-fat dried skimmed milk in TBS-Tween 20 [10 mM Tris/HCl (pH 7.5) with 150 mM NaCl and 0.1% Tween 20] at room temperature for 1 hour, and then treated with a primary antibody against GAPDH diluted 1:10000 in a milk/blot solution [3% (w/v) non-fat dried skimmed milk in TBS-Tween 20] at 4° C. overnight. […] Following extensive washing with TBS-Tween 20, protein bands were visualized with an Odyssey Infrared Imager (Li-Cor) and quantified using the Odyssey software.
In general terms: Immunoblotting shows a protein as a band on a membrane.

A further assay has as its target T1, wild type GLA (Homo sapiens, UniProt P06280).
T1 sequence (P06280 32-429): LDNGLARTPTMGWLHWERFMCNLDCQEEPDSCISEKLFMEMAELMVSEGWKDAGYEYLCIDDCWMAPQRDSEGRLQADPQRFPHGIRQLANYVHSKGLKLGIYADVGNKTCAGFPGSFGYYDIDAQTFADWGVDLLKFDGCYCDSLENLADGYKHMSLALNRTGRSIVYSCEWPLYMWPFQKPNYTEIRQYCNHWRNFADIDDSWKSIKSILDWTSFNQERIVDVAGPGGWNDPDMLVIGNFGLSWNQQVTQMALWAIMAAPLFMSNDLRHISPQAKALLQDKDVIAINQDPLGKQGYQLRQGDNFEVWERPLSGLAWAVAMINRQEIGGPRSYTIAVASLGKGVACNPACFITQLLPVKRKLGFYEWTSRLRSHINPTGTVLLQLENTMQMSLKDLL
On the procedure: A bacterial clone containing the full length cDNA of α-galactosidase A (IRAUp969H0320D, aligned to accession no. NM_000169.2 (GeneBank)) was received form ImaGenes GmbH, Berlin, Germany. Amplification was performed with the primers 5′-[…] […]-3′ (SEQ ID NO:1) and 5′-[…]-3′ (SEQ ID NO:2) introducing unique restriction sites for BamHI and BstBI. The PCR was taken out using cloned Pfu DNA polymerase (Stratagene). The cDNA was subcloned into pGEM-T Easy vector (Promega). Prior to ligation, the cDNA insert was incubated with Taq polymerase (Qiagen) to add a poly (A) overhang at the 3′-end for TA-cloning. For expression, the α-Gal A cDNA was ligated into target vector pcDNA3.1/V5-His6 (Invitrogen).

Assay [2] relates to acid α-glucosidase mutants. Here is the method: (§1) A bacterial clone containing the full length cDNA of […] (IRATp970C0971D, aligned to accession no. NM_000152.3, GeneBank) was received form ImaGenes GmbH, Berlin, Germany. Amplification was performed with the primers 5′-TAGGAGCTGTCCAGGCCATC-3′ (SEQ ID NO:3) and 5′-GAGAGACTAACACACTCCGC-3′ (SEQ ID NO:4). The PCR was carried out using iProof DNA Polymerase (BioRad). The cDNA was subcloned into pCRII TA TOPO vector (Invitrogen). Prior to ligation, the cDNA insert was incubated with Taq polymerase (Qiagen) to add a poly (A) overhang at the 3′-end for TA-cloning. For expression, the GAA cDNA was ligated into target vector pcDNA3.1/V5-His6 (Invitrogen) using sticky end ligation utilizing unique restriction sites (HindIII, XhoI) offered by both vectors multiple cloning sites.
(§2) Sample preparation was carried out analogously to the α-galactosidase A recordings. As substrate, a 1.3 mg 4-Methylumbelliferyl-α-D-Glukopyranoside/ml solution (in sodium acetate buffer, pH 4.0) was used and 5 μg sample/reaction were added. The reaction was incubated for 60 minutes at 37° C. and stopped with 1M Glycine-NaOH, pH 10.5.

For assay [3], the target named is acid α-glucosidase mutants (Homo sapiens, UniProt P10253, Y575S). The following applies: NB-DNJ and Ambroxol combination; FIG. 7A. Here is the method:
as §1, §2

A further assay deals with T2, GLA[R301G] (Homo sapiens, UniProt P06280, R301G).
T2 sequence (P06280 32-429 R301G): T1 sequence (P06280 32-429) with R270G
The following applies: 20 μM DGJ and 40 μM Ambroxol; untreated = 1.0; FIG. 5B.

Sequence of acid α-glucosidase mutants (Homo sapiens, UniProt P10253, Y575S) (P10253 70-952 Y575S): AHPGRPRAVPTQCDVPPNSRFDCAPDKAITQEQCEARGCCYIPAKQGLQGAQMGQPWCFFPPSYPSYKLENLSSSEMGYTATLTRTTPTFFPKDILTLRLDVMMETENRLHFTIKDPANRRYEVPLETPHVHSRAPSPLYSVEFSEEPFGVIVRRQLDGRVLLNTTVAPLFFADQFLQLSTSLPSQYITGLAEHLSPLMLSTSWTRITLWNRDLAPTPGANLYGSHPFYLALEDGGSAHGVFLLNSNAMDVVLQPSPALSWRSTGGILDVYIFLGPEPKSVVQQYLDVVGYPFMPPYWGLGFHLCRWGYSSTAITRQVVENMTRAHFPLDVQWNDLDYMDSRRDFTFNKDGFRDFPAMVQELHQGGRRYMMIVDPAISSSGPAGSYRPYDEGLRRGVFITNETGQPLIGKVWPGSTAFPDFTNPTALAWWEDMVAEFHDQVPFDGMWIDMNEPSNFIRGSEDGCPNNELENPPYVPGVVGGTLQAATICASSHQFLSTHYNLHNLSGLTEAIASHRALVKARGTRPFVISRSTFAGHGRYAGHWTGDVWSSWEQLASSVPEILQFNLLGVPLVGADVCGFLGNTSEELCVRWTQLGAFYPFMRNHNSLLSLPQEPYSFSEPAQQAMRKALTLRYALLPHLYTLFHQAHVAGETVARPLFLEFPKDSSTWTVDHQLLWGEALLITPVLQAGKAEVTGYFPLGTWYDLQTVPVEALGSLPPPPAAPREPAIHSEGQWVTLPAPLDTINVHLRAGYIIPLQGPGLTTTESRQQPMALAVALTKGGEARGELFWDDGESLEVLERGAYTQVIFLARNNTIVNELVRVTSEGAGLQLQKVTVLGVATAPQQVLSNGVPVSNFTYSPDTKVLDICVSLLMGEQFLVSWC

For `Nc1c(Br)cc(Br)cc1CN[C@H]1CC[C@H](O)CC1` [Ambroxol, 2-amino-3,5-dibromo-N-[trans-4-hydroxycyclohexyl]benzylamine], the “amount of Gal A protein in the cell (Western blot)” value in assay [1] is recorded as “higher amount of Gal A”. For the same compound, at wild type GLA (40 μM Ambroxol alone, FIG. 1), the “enzyme activity of the GLA of the wild type” value is recorded as “increase in enzyme activity”. In addition, the “inhibition of wild type GLA” value on wild type GLA (Ambroxol dose-response, FIG. 2) is given as “not inhibiting”. The “Ambroxol titer at or beyond which local maximum or saturation of wild type GLA activity” value at wild type GLA (FIG. 2) was above 60 µM. In addition, the EC50 (in general, the concentration that produces a half-maximal response) on wild type GLA (read-out: EC50 of increase of wild type GLA activity) amounted to 21.2 µM. Also, the “activity of acid α-glucosidase, Ambroxol in combination with NB-DNJ” value in assay [2] (20 μM NB-DNJ + 40 μM Ambroxol compared to 20 μM NB-DNJ alone, FIG. 7) is “enhanced”. Also, in assay [2] (20 μM NB-DNJ and 40 μM Ambroxol, FIG. 7A), the “enzyme activity of mutations Y455F, P545L and L552P, combined treatment” value is reported as “significantly increased”. The “activity of mutant acid α-glucosidase, Ambroxol alone” value in assay [2] (40 μM Ambroxol without chaperone) is reported as “not leading to an enhancement”. In addition, the “activity when additionally treated with Ambroxol” value in assay [2] (mutations Y455F, P545L and L552P, compared to NB-DNJ) was “tendency for higher activities”. Moreover, the “responsiveness of mutation Y575S” value in assay [3] is “clear tendency to be responsive only towards the combination”. In addition, on GLA[R301G], the “increase of GLA[R301G] activity” value stood at 4.1 fold.
